Results on 1 compound are retold here after ChEMBL document CHEMBL4840354, “Identification of Diarylurea Inhibitors of the Cardiac-Specific Kinase TNNI3K by Designing Selectivity Against VEGFR2, p38α, and B-Raf” (J Med Chem, 2021).

A value given as a limit tells only on which side of the number the result lay.

For data set [1], the target named is T1, Serine/threonine-protein kinase TNNI3K (Homo sapiens, UniProt Q59H18).
T1 sequence (Q59H18 whole entry): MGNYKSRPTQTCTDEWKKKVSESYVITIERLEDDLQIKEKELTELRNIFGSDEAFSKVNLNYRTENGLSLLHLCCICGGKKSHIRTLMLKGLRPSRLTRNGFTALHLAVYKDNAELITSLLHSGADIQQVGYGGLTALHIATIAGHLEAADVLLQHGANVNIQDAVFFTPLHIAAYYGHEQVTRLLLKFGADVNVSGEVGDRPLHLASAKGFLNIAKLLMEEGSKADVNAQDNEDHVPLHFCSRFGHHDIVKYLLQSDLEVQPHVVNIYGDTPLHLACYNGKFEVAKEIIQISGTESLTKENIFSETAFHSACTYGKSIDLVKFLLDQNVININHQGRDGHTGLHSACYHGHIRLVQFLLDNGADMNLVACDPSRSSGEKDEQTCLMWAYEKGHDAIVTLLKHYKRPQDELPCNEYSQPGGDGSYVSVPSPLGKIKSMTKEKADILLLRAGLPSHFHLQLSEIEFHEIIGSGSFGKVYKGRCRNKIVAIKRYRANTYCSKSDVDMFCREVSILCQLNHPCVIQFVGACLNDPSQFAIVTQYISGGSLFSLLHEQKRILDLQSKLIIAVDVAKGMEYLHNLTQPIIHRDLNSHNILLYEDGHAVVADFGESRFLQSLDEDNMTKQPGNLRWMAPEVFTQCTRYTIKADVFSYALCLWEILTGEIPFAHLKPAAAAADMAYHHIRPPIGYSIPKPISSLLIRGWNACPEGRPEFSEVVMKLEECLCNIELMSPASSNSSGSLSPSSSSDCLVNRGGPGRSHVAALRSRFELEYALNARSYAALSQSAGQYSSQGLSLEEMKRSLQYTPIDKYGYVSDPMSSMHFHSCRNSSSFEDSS
Put plainly: Inhibition of TNNI3K (unknown origin).

For data set [2], the target named is T1, Serine/threonine-protein kinase TNNI3K. Nature of the data set: Inhibition of human myc-TNNI3K expressed in HEK-MSR2 cells assessed as reduction in TNNI3K autophosphorylation preincubated for 30 mins followed by pervanadate addition and measured after 20 mins by DELFIA. In kind it is cell-based.
Data set [3] deals with Vascular endothelial growth factor receptor 2 (Homo sapiens, UniProt P35968). Nature of the data set: Inhibition of GST-6His tagged VEGFR2 (unknown origin) using biotin-aminohexyl-EEEEYFELVAKKKK-NH2 peptide substrate incubated for 90 mins by HTRF assay. A general note: Time-resolved FRET reads energy transfer from a long-lived donor to a nearby acceptor.
Sequence of Vascular endothelial growth factor receptor 2 (P35968 whole entry): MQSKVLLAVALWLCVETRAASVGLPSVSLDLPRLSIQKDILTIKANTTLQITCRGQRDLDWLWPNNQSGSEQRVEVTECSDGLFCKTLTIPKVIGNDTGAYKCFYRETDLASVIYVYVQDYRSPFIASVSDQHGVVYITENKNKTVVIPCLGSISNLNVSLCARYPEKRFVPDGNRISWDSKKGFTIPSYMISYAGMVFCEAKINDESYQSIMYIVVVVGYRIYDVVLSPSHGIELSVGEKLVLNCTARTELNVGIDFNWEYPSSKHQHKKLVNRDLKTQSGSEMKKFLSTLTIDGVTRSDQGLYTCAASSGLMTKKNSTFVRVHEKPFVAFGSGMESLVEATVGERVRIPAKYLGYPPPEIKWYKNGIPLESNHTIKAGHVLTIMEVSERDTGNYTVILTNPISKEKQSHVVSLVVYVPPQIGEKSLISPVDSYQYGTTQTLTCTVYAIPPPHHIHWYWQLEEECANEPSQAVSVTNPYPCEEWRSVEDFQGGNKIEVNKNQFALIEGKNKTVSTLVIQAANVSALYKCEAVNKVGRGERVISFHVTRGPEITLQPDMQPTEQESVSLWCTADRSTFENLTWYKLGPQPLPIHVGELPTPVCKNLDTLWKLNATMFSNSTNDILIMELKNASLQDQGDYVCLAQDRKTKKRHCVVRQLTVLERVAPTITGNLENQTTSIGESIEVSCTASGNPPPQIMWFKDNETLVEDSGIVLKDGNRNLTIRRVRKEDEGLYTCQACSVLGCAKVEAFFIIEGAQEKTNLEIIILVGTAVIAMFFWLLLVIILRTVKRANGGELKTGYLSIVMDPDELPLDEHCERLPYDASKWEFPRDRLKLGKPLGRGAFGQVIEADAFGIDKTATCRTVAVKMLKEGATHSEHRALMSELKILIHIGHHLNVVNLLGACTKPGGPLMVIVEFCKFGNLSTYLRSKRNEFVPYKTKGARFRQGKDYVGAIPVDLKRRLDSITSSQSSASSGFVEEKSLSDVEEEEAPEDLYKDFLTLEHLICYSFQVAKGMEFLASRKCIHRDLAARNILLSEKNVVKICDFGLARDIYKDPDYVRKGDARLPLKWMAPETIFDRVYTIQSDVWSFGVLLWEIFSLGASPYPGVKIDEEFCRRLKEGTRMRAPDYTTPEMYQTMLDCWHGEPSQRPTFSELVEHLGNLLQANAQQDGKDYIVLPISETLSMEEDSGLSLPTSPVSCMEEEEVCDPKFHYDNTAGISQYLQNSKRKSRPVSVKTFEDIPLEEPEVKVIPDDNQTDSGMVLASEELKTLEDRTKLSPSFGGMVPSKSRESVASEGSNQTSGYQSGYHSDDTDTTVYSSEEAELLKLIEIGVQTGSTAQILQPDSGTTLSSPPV
The target of data set [4] is Mitogen-activated protein kinase 14 (Homo sapiens, UniProt Q16539). Put plainly: Inhibition of p38alpha (unknown origin).
Sequence of Mitogen-activated protein kinase 14 (Q16539 whole entry): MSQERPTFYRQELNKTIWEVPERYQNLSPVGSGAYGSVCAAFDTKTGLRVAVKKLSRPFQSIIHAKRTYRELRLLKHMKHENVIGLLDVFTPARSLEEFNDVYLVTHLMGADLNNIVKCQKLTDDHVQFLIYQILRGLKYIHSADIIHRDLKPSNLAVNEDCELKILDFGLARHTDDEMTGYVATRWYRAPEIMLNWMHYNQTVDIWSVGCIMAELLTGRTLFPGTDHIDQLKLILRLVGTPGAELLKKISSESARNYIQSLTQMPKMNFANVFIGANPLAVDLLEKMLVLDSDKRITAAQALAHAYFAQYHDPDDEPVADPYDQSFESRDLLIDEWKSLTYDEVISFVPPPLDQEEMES
For data set [5], the target named is Serine/threonine-protein kinase B-raf (Homo sapiens, UniProt P15056). Nature of the data set: Inhibition of B-Raf (unknown origin).
Sequence of Serine/threonine-protein kinase B-raf (P15056 whole entry): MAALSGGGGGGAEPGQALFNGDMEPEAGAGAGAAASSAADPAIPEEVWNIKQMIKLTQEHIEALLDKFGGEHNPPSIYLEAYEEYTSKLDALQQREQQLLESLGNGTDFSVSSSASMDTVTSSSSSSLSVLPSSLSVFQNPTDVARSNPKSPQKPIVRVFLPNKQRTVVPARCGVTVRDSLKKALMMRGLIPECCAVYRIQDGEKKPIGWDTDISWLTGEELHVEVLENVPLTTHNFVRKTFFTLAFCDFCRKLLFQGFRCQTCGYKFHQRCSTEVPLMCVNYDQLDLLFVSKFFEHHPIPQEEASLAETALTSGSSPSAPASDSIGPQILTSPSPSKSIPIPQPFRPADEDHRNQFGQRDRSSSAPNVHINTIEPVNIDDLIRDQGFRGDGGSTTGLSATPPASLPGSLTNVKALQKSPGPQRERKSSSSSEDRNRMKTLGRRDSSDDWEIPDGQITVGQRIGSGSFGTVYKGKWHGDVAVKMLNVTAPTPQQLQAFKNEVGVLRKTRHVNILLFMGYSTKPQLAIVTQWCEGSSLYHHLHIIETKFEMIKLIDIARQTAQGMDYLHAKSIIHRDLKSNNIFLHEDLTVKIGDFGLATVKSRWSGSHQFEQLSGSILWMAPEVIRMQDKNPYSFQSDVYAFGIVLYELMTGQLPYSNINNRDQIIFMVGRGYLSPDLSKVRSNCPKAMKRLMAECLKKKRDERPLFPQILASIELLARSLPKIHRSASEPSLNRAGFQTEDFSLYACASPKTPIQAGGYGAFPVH
The species entered for data set [6] is Homo sapiens. Nature of the data set: Selectivity index, ratio of IC50 for inhibition of VEGFR2 (unknown origin) to IC50 for inhibition of TNNI3K (unknown origin).
The species named for data set [7] is Homo sapiens. Nature of the data set: Selectivity index, ratio of IC50 for inhibition of p38alpha (unknown origin) to IC50 for inhibition of TNNI3K (unknown origin).
The nature of data set [8]: Permeability of compound incubated for 2 hrs by liquid chromatography analysis. The conditions noted are these: read-out: permeability. Type of data set: ADME.
Data set [9] can be described thus: Dose normalized AUC in po dosed rat administered as cassette dose. Particulars: in vivo. Type of data set: ADME, organism-based.
The nature of data set [10]: Half life in po dosed rat administered as cassette dose. In kind it is ADME, organism-based. The conditions noted are these: in vivo.
The target in data set [11] is T1, Serine/threonine-protein kinase TNNI3K. Put plainly: Binding affinity to full length human His-MBP-TNNI3K assessed as off-rate constant in presence of rhodamine green labeled GW805818X by fluorescence competitive binding assay.
Data set [12] addresses T2, Serine/threonine-protein kinase TNNI3K (Mus musculus, UniProt Q5GIG6).
T2 sequence (Q5GIG6 whole entry): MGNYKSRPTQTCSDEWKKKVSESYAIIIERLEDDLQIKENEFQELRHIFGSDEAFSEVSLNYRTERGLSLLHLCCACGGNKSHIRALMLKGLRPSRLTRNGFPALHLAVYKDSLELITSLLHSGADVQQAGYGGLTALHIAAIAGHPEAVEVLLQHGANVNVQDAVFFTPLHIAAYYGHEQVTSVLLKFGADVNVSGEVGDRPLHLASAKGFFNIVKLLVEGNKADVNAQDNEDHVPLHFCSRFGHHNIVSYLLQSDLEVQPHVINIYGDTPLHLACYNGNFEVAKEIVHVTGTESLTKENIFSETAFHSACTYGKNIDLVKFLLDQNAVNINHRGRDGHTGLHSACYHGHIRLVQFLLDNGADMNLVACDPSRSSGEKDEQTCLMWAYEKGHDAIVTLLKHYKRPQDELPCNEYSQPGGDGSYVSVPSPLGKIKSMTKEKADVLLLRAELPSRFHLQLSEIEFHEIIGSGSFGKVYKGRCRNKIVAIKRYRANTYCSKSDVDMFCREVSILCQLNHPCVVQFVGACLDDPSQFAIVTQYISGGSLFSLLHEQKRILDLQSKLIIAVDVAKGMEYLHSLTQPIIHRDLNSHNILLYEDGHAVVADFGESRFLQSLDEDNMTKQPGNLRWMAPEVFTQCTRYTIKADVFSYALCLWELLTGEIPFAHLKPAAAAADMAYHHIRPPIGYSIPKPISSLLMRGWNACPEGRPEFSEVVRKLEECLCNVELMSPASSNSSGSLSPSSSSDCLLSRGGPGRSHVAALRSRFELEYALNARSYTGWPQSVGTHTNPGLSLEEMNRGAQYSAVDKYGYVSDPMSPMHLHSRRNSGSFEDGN
Nature of the data set: Binding affinity to full length mouse His-MBP-TNNI3K assessed as off-rate constant in presence of rhodamine green labeled GW805818X by fluorescence competitive binding assay.

Data set [13] concerns the target Voltage-gated inwardly rectifying potassium channel KCNH2 (Homo sapiens, UniProt Q12809). Put plainly: Inhibition of human ERG expressed in HEK293 cells. In kind it is cell-based.
Data set [14] has as its target T3, Serine/threonine-protein kinase TNNI3K (Homo sapiens) (UniProt Q59H18).
T3 sequence (whole entry): T1 sequence (Q59H18 whole entry)
Description: Binding affinity to full length human His-MBP-TNNI3K assessed as half life in presence of rhodamine green labeled GW805818X by fluorescence competitive binding assay

Data set [15] addresses T4, Serine/threonine-protein kinase TNNI3K (Mus musculus) (UniProt Q5GIG6).
T4 sequence (whole entry): T2 sequence (Q5GIG6 whole entry)
Description: Binding affinity to full length mouse His-MBP-TNNI3K assessed as half life in presence of rhodamine green labeled GW805818X by fluorescence competitive binding assay

Sequence of Voltage-gated inwardly rectifying potassium channel KCNH2 (Q12809 whole entry): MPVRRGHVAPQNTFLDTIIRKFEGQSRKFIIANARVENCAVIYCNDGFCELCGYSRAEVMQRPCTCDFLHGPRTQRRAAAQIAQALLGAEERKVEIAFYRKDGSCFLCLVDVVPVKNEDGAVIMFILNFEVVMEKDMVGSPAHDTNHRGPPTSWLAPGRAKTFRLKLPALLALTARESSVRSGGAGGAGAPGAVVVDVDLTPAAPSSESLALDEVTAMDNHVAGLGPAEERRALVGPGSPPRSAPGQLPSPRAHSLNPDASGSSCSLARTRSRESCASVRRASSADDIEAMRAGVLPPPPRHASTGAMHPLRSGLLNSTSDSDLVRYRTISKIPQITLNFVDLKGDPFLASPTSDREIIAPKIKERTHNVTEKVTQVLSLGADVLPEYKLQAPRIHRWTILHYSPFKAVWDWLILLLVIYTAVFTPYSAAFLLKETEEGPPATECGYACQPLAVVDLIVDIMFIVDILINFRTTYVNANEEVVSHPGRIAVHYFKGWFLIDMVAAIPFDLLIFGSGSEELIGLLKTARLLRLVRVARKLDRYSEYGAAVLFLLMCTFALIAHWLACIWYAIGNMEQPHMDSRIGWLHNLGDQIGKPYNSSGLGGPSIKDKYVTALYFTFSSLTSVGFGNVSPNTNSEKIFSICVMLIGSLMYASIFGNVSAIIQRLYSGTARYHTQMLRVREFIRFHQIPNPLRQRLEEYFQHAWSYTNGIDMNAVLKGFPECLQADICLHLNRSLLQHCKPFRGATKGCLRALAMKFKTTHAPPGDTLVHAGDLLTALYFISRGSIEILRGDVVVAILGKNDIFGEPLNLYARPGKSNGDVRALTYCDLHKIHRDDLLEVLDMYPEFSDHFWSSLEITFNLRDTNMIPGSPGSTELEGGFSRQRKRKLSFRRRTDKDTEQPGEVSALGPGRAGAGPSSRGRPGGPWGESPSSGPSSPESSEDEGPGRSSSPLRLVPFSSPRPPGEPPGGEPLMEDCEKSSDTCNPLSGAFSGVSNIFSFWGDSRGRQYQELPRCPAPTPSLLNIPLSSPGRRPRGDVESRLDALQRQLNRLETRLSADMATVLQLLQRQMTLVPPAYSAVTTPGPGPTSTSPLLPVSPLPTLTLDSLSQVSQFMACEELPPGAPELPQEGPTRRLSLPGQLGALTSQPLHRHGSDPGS

The IC50 is the midpoint of a concentration-inhibition curve. One may read the half-life as how long it takes for the measured level to halve. A high value points to slow decline. As usually defined, the Ki is the equilibrium dissociation constant of an inhibitor or competing ligand from its target. With `CNc1cc(Oc2c(Cl)cc(NC(=O)Nc3cccc(C(F)(F)F)c3)cc2Cl)ncn1`, the half-maximal inhibitory concentration (IC50) in [1] is 10 nM; in data set [2], 100 nM; in data set [3], 400 nM; in data set [4], 800 nM; in data set [5], more than 2000 nM; in [13], more than 31600 nM. In addition, the Ratio IC50 in data set [6] amounted to 40; in data set [7] it was 80. In addition, the Papp at 2 h in data set [8] came to 7.4 ×10⁻⁶ cm/s. The compound further displayed an AUC/dose in data set [9] of 3.8 kg·h/L. Further, the half-life in data set [10] was 5.4 h. The Ki worked out at 0.54 nM in data set [11] and 13 nM in data set [12]. Moreover, the values for the T1/2 in [14] and in data set [15] were 1.3 h and 0.417 h, respectively.
